Tests used:
Assay type in all cases: cell-based, human
[1] = test system: PIM2; assay: PIM2 expression in in vitro differentiated activated B cells / plasmablasts after SSO treatment (mRNA, PCR, western blot, immunofluorescence)
Method: FIG. 1. Specific PIM2 inhibition affects the generation of plasmablasts • A. Diagram explaining SSO-PIM2 action. It binds to the second exon of the gene PIM2 leading in a skip of this exon during transcription and finally results to a frame shift and created an early stop-codon during translation. The protein is so a non-functional truncated protein. • B. Activated B cells were treated at D4 with an increasing dose of SSO-PIM2 and SSO-CTL (control condition) and recovered 48 hours later (at D6). PIM2 mRNA residual expression compared to the control condition adjust at 100% (mean±SD, n=3) and agarose gel of PIM2 PCR, showing exon skipping. • C. At D4, activated B cells were treated with SSO-PIM2 and SSO-CTL (control condition) at 2 μM. CD23+ aBC and PB were sorted at D6. PIM2 mRNA relative expression (mean±SD, n=4) (left) and PIM2 protein expression by western blot (middle) and immunofluorescence (right) after PIM2 inhibition. • D-E. Decrease of PB generation after PIM2 inhibition. Cells were treated with SSO-PIM2 at 2 μM (D) or increase dose of the PIM inhibitor AZD1208 (PIMi as indicated, in μM) (E) and their control condition (SSO-CTL and DMSO respectively). The untreated condition is referred as “NT” (=no treatment). Left: Absolute number of PB obtained at D6 after PIM2 inhibition. Data are representative with bars at mean±SD, n=6. Right: Proportion of PB evaluated at D6 by flow cytometry after treatment with SSO-PIM2 at 2 μM. Data are representative of six independent experiments. • F. Transcription factors (IRF4, PRDM1, XBPIS, BACH2, BCL6, SPIB, IRF8 and PAX5) mRNA relative expression after specific PIM2 inhibition. Data are representative with bars at mean±SD, n=4.
To identify genes whose transcription was acutely regulated during the final commitment step we developed our previously described in vitro differentiation model system on human naive B cells (NBCs) giving at day-6 (D6) four cell populations that were explored transcriptionally (data not shown) (Caron et al., 2015; Le Gallou et al., 2012; Pignarre et al., 2021). […]

[2] = test system: IRF4, PRDM1, XBPIS, BACH2, BCL6, SPIB, IRF8 and PAX5; assay: Transcription factor mRNA relative expression in generated PBs; settings: SSO-PIM2 present
Method: FIG. 1. Specific PIM2 inhibition affects the generation of plasmablasts • A. Diagram explaining SSO-PIM2 action. It binds to the second exon of the gene PIM2 leading in a skip of this exon during transcription and finally results to a frame shift and created an early stop-codon during translation. The protein is so a non-functional truncated protein. • B. Activated B cells were treated at D4 with an increasing dose of SSO-PIM2 and SSO-CTL (control condition) and recovered 48 hours later (at D6). PIM2 mRNA residual expression compared to the control condition adjust at 100% (mean±SD, n=3) and agarose gel of PIM2 PCR, showing exon skipping. • C. At D4, activated B cells were treated with SSO-PIM2 and SSO-CTL (control condition) at 2 μM. CD23+ aBC and PB were sorted at D6. PIM2 mRNA relative expression (mean±SD, n=4) (left) and PIM2 protein expression by western blot (middle) and immunofluorescence (right) after PIM2 inhibition. • D-E. Decrease of PB generation after PIM2 inhibition. Cells were treated with SSO-PIM2 at 2 μM (D) or increase dose of the PIM inhibitor AZD1208 (PIMi as indicated, in μM) (E) and their control condition (SSO-CTL and DMSO respectively). The untreated condition is referred as “NT” (=no treatment). Left: Absolute number of PB obtained at D6 after PIM2 inhibition. […] Right: Proportion of PB evaluated at D6 by flow cytometry after treatment with SSO-PIM2 at 2 μM. […]

[3] = test system: p21^Cip1/WAF1; assay: CDKN1A gene and p21^Cip1/WAF1 protein expression in PBs
Excerpt: Like p27^Kip1, p21^Cip1/WAF1 is a tight-binding inhibitor of CDKs and inhibits cell cycle entry into S phase (Elledge et al., 1996). Plasmablast commitment leads to a significant increase of the CDKN1A gene, which encodes p21^Cip1/WAF1, and this independently to the expression of TP53 (data not shown). […] We then wondered whether PIM2 could modify p21^Cip1/WAF1 expression. […] To address this scenario, we developed endogenous protein immunoprecipitation (IP) and found in generated PBs and XG21 cell line as well that PIM2, p21^Cip1/WAF1 and HSP90β form a cytoplasmic multiprotein complex (data not shown).

5′-CCTCATGACGGATACCTGGAGTC-3′ (all phosphorodiamidate morpholino (PMO)) [SSO-PIM2]
PIM2 knockdown ([1]; 2 μM): near-knockout condition for PIM2
duration of PIM2 near-knockout ([1]; 2 μM): up to 96 h
inhibition of PIM2 expression ([1]; D6 collected PBs, increasing dose added at D4, 48 hours): dose-dependent inhibition of PIM2 expression
expression of key transcription factors involved in B cell differentiation in generated PBs [2]: not affected
CDKN1A gene upregulation in PBs [3]: did not interfere with CDKN1A gene upregulation
p21^Cip1/WAF1 protein expression and localization ([3]; PBs): decreased dramatically its cytoplasmic expression without nuclear relocalization
